According to ChEMBL document CHEMBL5512619, “Anticancer mechanism of coumarin-based derivatives” (Eur J Med Chem, 2024):

Columns and labels:
[1] = biological target: Carbonic anhydrase 2 (Homo sapiens, UniProt P00918); assay: Binding affinity to human CA2 assessed as inhibition constant incubated for 10 mins by phenol red dye based stopped flow CO2 hydration assay
[2] = biological target: Carbonic anhydrase 1 (Homo sapiens, UniProt P00915); assay: Binding affinity to human CA1 assessed as inhibition constant incubated for 10 mins by phenol red dye based stopped flow CO2 hydration assay
[3] = tested on: HepG2; assay: Cytotoxicity against human HepG2 cells; format: functional, cell-based
[4] = biological target: Receptor tyrosine-protein kinase erbB-2 (Homo sapiens, UniProt P04626); assay: Inhibition of HER2 (unknown origin)
[5] = tested on: HeLa; assay: Cytotoxicity against human HeLa cells; format: functional, cell-based
[6] = Cytotoxicity against human Lu1 cells; format: functional, cell-based
[7] = biological target: Epidermal growth factor receptor (Homo sapiens, UniProt P00533); assay: Inhibition of EGFR (unknown origin)
[8] = tested on: MCF7; assay: Antiproliferative activity against human MCF7 cells assessed as inhibition of cell growth after 72 hrs by MTT assay; format: functional, cell-based; conditions: MCF7, 72 h
[9] = Antiproliferative activity against human Lu1 cells assessed as inhibition of cell growth after 72 hrs by MTT assay; format: functional, cell-based; conditions: Lu1, 72 h
[10] = tested on: HepG2; assay: Antiproliferative activity against human HepG2 cells assessed as inhibition of cell growth after 72 hrs by MTT assay; format: functional, cell-based; conditions: HepG2, 72 h
[11] = tested on: SK-MEL-2; assay: Antiproliferative activity against human SK-MEL-2 cells assessed as inhibition of cell growth after 72 hrs by MTT assay; format: functional, cell-based; conditions: SK-MEL-2, 72 h
[12] = tested on: HeLa; assay: Antiproliferative activity against human HeLa cells assessed as inhibition of cell growth after 72 hrs by MTT assay; format: functional, cell-based
[13] = tested on: HepG2; assay: Cytotoxicity against human HepG2 cells incubated for 72 hrs by MTT assay; format: functional, cell-based; conditions: HepG2, 72 h
[14] = Cytotoxicity against human Lu1 cells incubated for 72 hrs by MTT assay; format: functional, cell-based; conditions: Lu1, 72 h
[15] = tested on: HeLa; assay: Cytotoxicity against human HeLa cells incubated for 72 hrs by MTT assay; format: functional, cell-based

Chain of Receptor tyrosine-protein kinase erbB-2 (P04626 whole entry): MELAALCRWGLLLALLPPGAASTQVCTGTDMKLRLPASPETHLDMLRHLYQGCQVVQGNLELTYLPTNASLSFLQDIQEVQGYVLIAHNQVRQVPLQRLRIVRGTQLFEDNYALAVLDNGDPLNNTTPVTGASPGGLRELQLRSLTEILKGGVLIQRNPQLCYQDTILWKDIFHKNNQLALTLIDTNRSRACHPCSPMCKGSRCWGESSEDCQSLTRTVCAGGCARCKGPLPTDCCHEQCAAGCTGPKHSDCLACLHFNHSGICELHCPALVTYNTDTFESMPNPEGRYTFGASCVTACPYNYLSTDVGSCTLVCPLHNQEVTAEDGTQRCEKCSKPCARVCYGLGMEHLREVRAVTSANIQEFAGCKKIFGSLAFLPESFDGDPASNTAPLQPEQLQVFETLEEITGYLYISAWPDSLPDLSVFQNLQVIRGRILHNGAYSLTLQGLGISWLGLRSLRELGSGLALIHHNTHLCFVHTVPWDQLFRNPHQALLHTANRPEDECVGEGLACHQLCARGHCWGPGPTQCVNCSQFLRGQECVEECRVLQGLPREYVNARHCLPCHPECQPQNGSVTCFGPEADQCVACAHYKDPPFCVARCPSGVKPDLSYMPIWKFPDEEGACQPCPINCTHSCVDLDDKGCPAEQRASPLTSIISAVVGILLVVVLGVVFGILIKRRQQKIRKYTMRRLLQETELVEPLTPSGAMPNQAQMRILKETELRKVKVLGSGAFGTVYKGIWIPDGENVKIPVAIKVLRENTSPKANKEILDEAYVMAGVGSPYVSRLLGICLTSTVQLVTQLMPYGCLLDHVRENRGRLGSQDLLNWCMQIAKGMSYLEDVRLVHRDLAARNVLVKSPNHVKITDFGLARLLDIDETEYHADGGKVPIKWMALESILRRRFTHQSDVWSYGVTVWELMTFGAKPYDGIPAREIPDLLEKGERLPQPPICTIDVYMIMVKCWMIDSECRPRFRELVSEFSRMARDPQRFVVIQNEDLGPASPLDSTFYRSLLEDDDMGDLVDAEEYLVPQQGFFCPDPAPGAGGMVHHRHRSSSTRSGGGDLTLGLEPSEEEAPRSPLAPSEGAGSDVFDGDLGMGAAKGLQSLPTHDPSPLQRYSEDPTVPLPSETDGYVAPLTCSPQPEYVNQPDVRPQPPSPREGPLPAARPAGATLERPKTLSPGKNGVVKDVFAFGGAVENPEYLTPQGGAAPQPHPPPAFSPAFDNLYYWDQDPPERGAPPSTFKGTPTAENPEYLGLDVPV
Chain of Carbonic anhydrase 1 (P00915 whole entry): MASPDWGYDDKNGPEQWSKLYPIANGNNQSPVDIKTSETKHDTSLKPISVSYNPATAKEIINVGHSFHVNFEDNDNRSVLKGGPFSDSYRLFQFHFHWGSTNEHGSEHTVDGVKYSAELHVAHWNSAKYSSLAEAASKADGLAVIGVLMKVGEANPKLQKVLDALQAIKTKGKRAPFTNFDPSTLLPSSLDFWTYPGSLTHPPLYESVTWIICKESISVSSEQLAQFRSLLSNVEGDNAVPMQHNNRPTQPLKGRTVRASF
Chain of Epidermal growth factor receptor (P00533 whole entry): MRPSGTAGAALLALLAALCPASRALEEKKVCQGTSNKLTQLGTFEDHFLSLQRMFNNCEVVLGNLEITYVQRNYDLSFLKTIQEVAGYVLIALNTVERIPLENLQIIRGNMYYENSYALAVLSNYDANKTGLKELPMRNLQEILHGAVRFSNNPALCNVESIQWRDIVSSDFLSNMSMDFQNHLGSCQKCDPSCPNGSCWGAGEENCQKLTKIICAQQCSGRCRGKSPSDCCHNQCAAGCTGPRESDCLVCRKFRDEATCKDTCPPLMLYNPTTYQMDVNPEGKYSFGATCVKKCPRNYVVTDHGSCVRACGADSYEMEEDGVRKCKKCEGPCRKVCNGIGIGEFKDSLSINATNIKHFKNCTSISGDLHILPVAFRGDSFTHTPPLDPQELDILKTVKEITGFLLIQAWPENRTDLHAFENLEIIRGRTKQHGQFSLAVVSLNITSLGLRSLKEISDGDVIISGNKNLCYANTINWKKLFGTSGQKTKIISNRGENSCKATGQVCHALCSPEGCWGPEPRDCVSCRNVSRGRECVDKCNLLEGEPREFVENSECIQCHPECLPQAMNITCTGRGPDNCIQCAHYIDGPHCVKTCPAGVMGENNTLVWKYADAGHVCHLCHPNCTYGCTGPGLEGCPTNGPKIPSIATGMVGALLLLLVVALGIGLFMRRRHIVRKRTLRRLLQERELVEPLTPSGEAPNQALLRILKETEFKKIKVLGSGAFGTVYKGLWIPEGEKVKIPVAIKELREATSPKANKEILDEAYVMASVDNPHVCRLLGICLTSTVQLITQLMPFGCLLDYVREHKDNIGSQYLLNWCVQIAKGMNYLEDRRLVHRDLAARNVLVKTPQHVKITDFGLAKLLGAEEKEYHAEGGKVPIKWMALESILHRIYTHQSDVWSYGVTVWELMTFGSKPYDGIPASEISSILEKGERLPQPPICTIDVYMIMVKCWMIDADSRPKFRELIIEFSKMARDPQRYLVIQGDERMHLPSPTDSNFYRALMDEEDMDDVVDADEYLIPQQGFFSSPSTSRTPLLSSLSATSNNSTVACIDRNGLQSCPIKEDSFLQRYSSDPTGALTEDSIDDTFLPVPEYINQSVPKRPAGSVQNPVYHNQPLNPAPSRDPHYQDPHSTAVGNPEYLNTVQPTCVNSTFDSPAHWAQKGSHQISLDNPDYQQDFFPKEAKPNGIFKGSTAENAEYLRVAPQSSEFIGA

C[C@@H]1CN(S(=O)(=O)c2cc(C(=O)Nc3ccc4c(c3)C=CS(=O)(=O)O4)ccc2F)C[C@H](C)O1
Ki [1]: 0.0994 µM
Ki [2]: 0.0994 µM

O=C(Nc1ccc2c(c1)C=CS(=O)(=O)O2)c1ccc(F)c(S(=O)(=O)N2CCOCC2)c1
Ki [1]: 0.0994 µM
Ki [2]: 0.0994 µM

CC(=O)OC[C@H]1O[C@@H](n2c(-c3ccccc3)cs/c2=N\N=C\c2cc(=O)oc3cc(OCCC(C)C)ccc23)[C@H](OC(C)=O)[C@@H](OC(C)=O)[C@@H]1OC(C)=O
IC50 [3]: 1.18 µM
IC50 [4]: 0.15 µM
IC50 [5]: 1.18 µM
IC50 [6]: 1.18 µM
IC50 [7]: 0.15 µM

CC(=O)OC[C@H]1O[C@@H](NC(=S)N/N=C(\C)c2cc3ccc(C)cc3oc2=O)[C@H](OC(C)=O)[C@@H](OC(C)=O)[C@H]1OC(C)=O
IC50 [8]: 1.28 µM
IC50 [9]: 1.28 µM
IC50 [10]: 1.28 µM
IC50 [11]: 1.28 µM
IC50 [12]: 1.28 µM

CC(=O)OC[C@H]1O[C@@H](NC(=S)N/N=C(\C)c2cc3cc(Br)ccc3oc2=O)[C@H](OC(C)=O)[C@@H](OC(C)=O)[C@H]1OC(C)=O
IC50 [8]: 1.28 µM
IC50 [9]: 1.28 µM
IC50 [10]: 1.28 µM
IC50 [11]: 1.28 µM
IC50 [12]: 1.28 µM

C[C@@H]1CN(S(=O)(=O)c2cc(C(=O)Nc3ccc4c(c3)C=CS(=O)(=O)O4)ccc2Cl)C[C@H](C)S1
Ki [1]: 0.0994 µM
Ki [2]: 0.0994 µM

CC(=O)OC[C@H]1O[C@@H](NC(=S)N/N=C(\C)c2cc3cc(C)ccc3oc2=O)[C@H](OC(C)=O)[C@@H](OC(C)=O)[C@H]1OC(C)=O
IC50 [8]: 1.28 µM
IC50 [9]: 1.28 µM
IC50 [10]: 1.28 µM
IC50 [11]: 1.28 µM
IC50 [12]: 1.28 µM

CC(=O)OC[C@H]1O[C@@H](n2c(-c3ccccc3)cs/c2=N\N=C\c2cc(=O)oc3cc(C)ccc23)[C@H](OC(C)=O)[C@@H](OC(C)=O)[C@@H]1OC(C)=O
IC50 [3]: 1.18 µM
IC50 [5]: 1.18 µM
IC50 [6]: 1.18 µM

O=C(Nc1ccc2c(c1)C=CS(=O)(=O)O2)c1ccc(Cl)c(S(=O)(=O)N2CCCCC2)c1
Ki [1]: 0.0994 µM
Ki [2]: 0.0994 µM

COc1ccc(C(=O)Nc2ccc3c(c2)C=CS(=O)(=O)O3)cc1S(=O)(=O)N1CCCC1
Ki [1]: 0.0994 µM
Ki [2]: 0.0994 µM

CCOc1ccc2oc(=O)cc(C3SC(N(C(C)=O)[C@@H]4O[C@H](COC(C)=O)[C@H](OC(C)=O)[C@H](OC(C)=O)[C@H]4OC(C)=O)=NN3C(C)=O)c2c1 (stereo partly drawn)
IC50 [13]: 1.18 µM
IC50 [14]: 1.18 µM
IC50 [4]: 0.13 µM
IC50 [15]: 1.18 µM
IC50 [7]: 0.22 µM

O=C(Nc1ccc2c(c1)C=CS(=O)(=O)O2)c1ccc(Cl)c(S(=O)(=O)N2CCOCC2)c1
Ki [1]: 0.0994 µM
Ki [2]: 0.0994 µM

COc1ccc(C(=O)Nc2ccc3c(c2)C=CS(=O)(=O)O3)cc1S(=O)(=O)N1C[C@@H](C)O[C@@H](C)C1
Ki [1]: 0.0994 µM
Ki [2]: 0.0994 µM

COc1ccc(C(=O)Nc2ccc3c(c2)C=CS(=O)(=O)O3)cc1S(=O)(=O)N1CCOCC1
Ki [1]: 0.0994 µM
Ki [2]: 0.0994 µM

CC(=O)OC[C@H]1O[C@@H](NC(=S)N/N=C(\C)c2c(C)c3ccc(O)cc3oc2=O)[C@H](OC(C)=O)[C@@H](OC(C)=O)[C@H]1OC(C)=O
IC50 [8]: 1.28 µM
IC50 [9]: 1.28 µM
IC50 [10]: 1.28 µM
IC50 [11]: 1.28 µM
IC50 [12]: 1.28 µM

O=C(Nc1ccc2c(c1)C=CS(=O)(=O)O2)c1ccc(F)c(S(=O)(=O)N2CCCC2)c1
Ki [1]: 0.0994 µM
Ki [2]: 0.0994 µM

CCCCOc1ccc2oc(=O)cc(C3SC(N(C(C)=O)[C@@H]4O[C@H](COC(C)=O)[C@@H](OC(C)=O)[C@H](OC(C)=O)[C@H]4OC(C)=O)=NN3C(C)=O)c2c1 (stereo partly drawn)
IC50 [13]: 1.18 µM
IC50 [14]: 1.18 µM
IC50 [4]: 0.13 µM
IC50 [15]: 1.18 µM
IC50 [7]: 0.22 µM

CC(=O)OC[C@H]1O[C@@H](NC(=S)N/N=C(\C)c2cc3cc(Cl)ccc3oc2=O)[C@H](OC(C)=O)[C@@H](OC(C)=O)[C@H]1OC(C)=O
IC50 [8]: 1.28 µM
IC50 [9]: 1.28 µM
IC50 [10]: 1.28 µM
IC50 [11]: 1.28 µM
IC50 [12]: 1.28 µM

CC(=O)OC[C@H]1O[C@@H](NC(=S)N/N=C(\C)c2c(C)c3ccccc3oc2=O)[C@H](OC(C)=O)[C@@H](OC(C)=O)[C@H]1OC(C)=O
IC50 [8]: 1.28 µM
IC50 [9]: 1.28 µM
IC50 [10]: 1.28 µM
IC50 [11]: 1.28 µM
IC50 [12]: 1.28 µM

CC(=O)OC[C@H]1O[C@@H](n2c(-c3ccccc3)cs/c2=N\N=C(/C)c2cc3ccccc3oc2=O)[C@H](OC(C)=O)[C@@H](OC(C)=O)[C@@H]1OC(C)=O
IC50 [3]: 1.18 µM
IC50 [5]: 1.18 µM
IC50 [6]: 1.18 µM

CCCCCOc1ccc2oc(=O)cc(/C=N/N=c3\scc(-c4ccccc4)n3[C@@H]3O[C@H](COC(C)=O)[C@@H](OC(C)=O)[C@H](OC(C)=O)[C@H]3OC(C)=O)c2c1
IC50 [3]: 1.18 µM
IC50 [4]: 0.15 µM
IC50 [5]: 1.18 µM
IC50 [6]: 1.18 µM
IC50 [7]: 0.15 µM

Cc1ccc(C(=O)Nc2ccc3c(c2)C=CS(=O)(=O)O3)cc1S(=O)(=O)N1CCCC1
Ki [1]: 0.0994 µM
Ki [2]: 0.0994 µM

CC(=O)OC[C@H]1O[C@@H](NC(=S)N/N=C(\C)c2c(O)c3cccc(C)c3oc2=O)[C@H](OC(C)=O)[C@@H](OC(C)=O)[C@H]1OC(C)=O
IC50 [8]: 1.28 µM
IC50 [9]: 1.28 µM
IC50 [10]: 1.28 µM
IC50 [11]: 1.28 µM
IC50 [12]: 1.28 µM

COc1ccc(C(=O)Nc2ccc3c(c2)C=CS(=O)(=O)O3)cc1S(=O)(=O)N1CCSCC1
Ki [1]: 0.0994 µM
Ki [2]: 0.0994 µM
